Reference: publication PMC11382352 (Drug development research, 2019)
Values after ≈ are worked out from the molar mass of the structure shown. Like-named read-outs stand apart in the source and are kept apart here.

Test system: Mycobacterium tuberculosis H37Rv
Experiment: Microtiter dilution MIC assay in GAST-Fe and 7H9-based media
Format: cell-based
Settings: for MIC: Mycobacterium tuberculosis, H37RV; for MIC (Gast/Fe) Week 1: GAST-Fe medium pH 6.6, read after week 1; for MIC (Gast/Fe) Week 2: GAST-Fe medium pH 6.6, read after week 2

SMILES	MIC (Gast/Fe) Week 2 [µM]	further results
Oc1cc(Cl)ccc1Oc1ccc(Cl)cc1Cl [Triclosan, 2,4,4׳- trichloro- 2׳- hydroxy diphenyl ether, reference compound]	–	MIC (pH 6.6, read-out: MIC (Gast/Fe) Week 1): 43 µM (≈ 12.5 µg/mL); MIC (pH 6.6, read-out: MIC (Gast/Fe) Week 2): 43 µM (≈ 12.5 µg/mL); MIC (read-out: MIC (7H9/ADC/Tween) Week 1): 22 µM (≈ 6.37 µg/mL); MIC (read-out: MIC (7H9/ADC/Tween) Week 2): 43 µM (≈ 12.5 µg/mL)
Cc1ccc(NCc2ccc(Oc3ccccn3)cc2)cc1 [Compound 2d, 4-methyl-N-(4-(pyridin-2-yloxy)benzyl) aniline]	–	MIC (Gast/Fe) Week 1: 22 µM (≈ 6.39 µg/mL)
Clc1cccc(NCc2ccc(Oc3ccccn3)cc2)c1 [Compound 2h, 3-chloro-N-(4-(pyridin-2-yloxy)benzyl) aniline]	40 (≈ 12.4 µg/mL)	–
Clc1ccc(NCc2ccc(Oc3ccccn3)cc2)cc1 [Compound 2g, 4-chloro-N-(4-(pyridin-2-yloxy)benzyl) aniline]	40 (≈ 12.4 µg/mL)	–
Fc1ccc(NCc2ccc(Oc3ccccn3)cc2)cc1 [Compound 2j, 4-fluoro-N-(4-(pyridin-2-yloxy)benzyl) aniline]	25 (≈ 7.36 µg/mL)	–
Brc1cccc(NCc2ccc(Oc3ccccn3)cc2)c1 [Compound 2m, 3-bromo-N-(4-(pyridin-2-yloxy)benzyl) aniline]	35 (≈ 12.4 µg/mL)	–
COc1cccc(NCc2ccc(Oc3ccccn3)cc2)c1 [Compound 2c, 3-methoxy-N-(4-(pyridin-2-yloxy)benzyl) aniline]	37 (≈ 11.3 µg/mL)	–
c1ccc(NCc2ccc(Oc3ccccn3)cc2)cc1 [Compound 2a, N-(4-(pyridin-2-yloxy)benzyl) aniline]	37 (≈ 10.2 µg/mL)	–
Clc1ccccc1NCc1ccc(Oc2ccccn2)cc1 [Compound 2i, 2-chloro-N-(4-(pyridin-2-yloxy)benzyl) aniline]	20 (≈ 6.22 µg/mL)	MIC (Gast/Fe) Week 1: 20 µM (≈ 6.22 µg/mL)
